Test results reported in PubChem BioAssay AID1117324 (Cheminformatics & Chemogenomics Research Group (CCRG), …, 2015).
Activity calls are given as the source filed them. No rule for the calls is given here.

System: VEGF-stimulated ADSC/ECFC co-culture, nuclear area imaging
Experiment: nuclear area loss in endothelial-stromal co-culture, dose response, cell-based, VEGF stimulation, IC50 (AID 1117324)

Compound | IC50
O=C1NCN(c2ccccc2)C12CCN(CCCC(c1ccc(F)cc1)c1ccc(F)cc1)CC2 | 8.09 µM (inactive)
C[C@]12CC[C@@H]3c4ccc(O)cc4CC[C@H]3[C@@H]1CC[C@@H]2OC(=O)CCC1CCCC1 | > 10 µM (inactive)
O=[N+]([O-])c1cc(I)c(O)c(I)c1 | > 10 µM (inactive)
O=C1NCCN1CCN1CCC(c2cn(-c3ccc(F)cc3)c3ccc(Cl)cc23)CC1 | > 10 µM (inactive)
Oc1ccc(O)cc1 | > 10 µM (inactive)
COc1ccc(Cc2nccc3cc(OC)c(OC)cc23)cc1OC | > 10 µM (inactive)
O=C(O)c1ccc(-n2nc(-c3ccccc3O)nc2-c2ccccc2O)cc1 | > 10 µM (inactive)
CCN(CC)CCOc1ccc(C(O)(Cc2ccc(Cl)cc2)c2ccc(C)cc2)cc1 (configuration not stated) | 6.98 µM (inactive)
CN1CCN(c2cc3c(nn2)Oc2ccccc2N3C)CC1 | > 10 µM (inactive)
OCCN1CCN(CCCN2c3ccccc3Sc3ccc(Cl)cc32)CC1 | > 10 µM (inactive)
C/C(=N\O)[C@@H](C)NCC(C)(C)CN[C@H](C)/C(C)=N/O | > 10 µM (inactive)
C#C[C@]1(O)CC[C@H]2[C@@H]3CCc4cc(O)ccc4[C@H]3CC[C@@]21C | > 10 µM (inactive)
Cc1c(O)cc2c(c1C)O[C@](C)(CCC[C@H](C)CCC[C@H](C)CCCC(C)C)CC2 | > 10 µM (inactive)
COCc1c(C(C)C)nc(C(C)C)c(/C=C/[C@@H](O)C[C@@H](O)CC(=O)O)c1-c1ccc(F)cc1 | 0.259 µM
CN[C@@H]1C[C@@H](c2ccc(Cl)c(Cl)c2)c2ccccc21 | > 10 µM (inactive)
CN1CCN(C2Cc3ccccc3Sc3ccc(Cl)cc32)CC1 (configuration not stated) | > 10 µM (inactive)
CC(=O)[O][Hg][c]1ccccc1 | 0.883 µM
NC1=NCC2c3ccccc3Cc3ccccc3N12 (configuration not stated) | > 10 µM (inactive)
CCCCCCCCCCCCCCCCCC[N+](C)(C)CCC[Si](OC)(OC)OC | > 10 µM (inactive)
CC1=C(C(=O)OC(C)C)C(c2cccc([N+](=O)[O-])c2)C(C(=O)OC2CN(C(c3ccccc3)c3ccccc3)C2)=C(N)N1 (configuration not stated) | 7.39 µM (inactive)
CCCCCCCCCCCCCC[N+](C)(C)C | 6.68 µM (inactive)
NC(=O)C1(N2CCCCC2)CCN(CCCN2c3ccccc3CCc3ccc(Cl)cc32)CC1 | > 10 µM (inactive)
O=C(Nc1ccc(Br)cc1)c1cc(Br)cc(Br)c1O | > 10 µM (inactive)

Compound | IC50
COc1ccc2cc1Oc1ccc(cc1)C[C@H]1c3c(cc4c(c3Oc3cc5c(cc3OC)CCN(C)[C@@H]5C2)OCO4)CCN1C | > 10 µM (inactive)
CS(=O)(=O)CCNCc1ccc(-c2ccc3ncnc(Nc4ccc(OCc5cccc(F)c5)c(Cl)c4)c3c2)o1 | > 10 µM (inactive)
O=NN(CCCl)C(=O)NC1CCCCC1 | > 10 µM (inactive)
CCc1oc2ccccc2c1C(=O)c1cc(Br)c(O)c(Br)c1 | > 10 µM (inactive)
COc1ccc2cc3[n+](cc2c1OC)CCc1cc2c(cc1-3)OCO2 | > 10 µM (inactive)
CC1(C)[C@H](C=C(Cl)Cl)[C@@H]1C(=O)OCc1c(F)c(F)cc(F)c1F | > 10 µM (inactive)
COc1cc2c(c(OC)c1OC)-c1ccc(OC)c(=O)cc1[C@@H](NC(C)=O)CC2 | > 10 µM (inactive)
CC(C)Cn1cnc2c1c(=O)n(C)c(=O)n2C | > 10 µM (inactive)
Cc1nc2ccccc2n1Cc1ccc(Cl)cc1 | > 10 µM (inactive)
Oc1ccc(/C=C/c2cc(O)cc(O)c2)cc1 | > 10 µM (inactive)
O=C(O)C1CCC1 | > 10 µM (inactive)
CCN[C@@H](C)Cc1cccc(C(F)(F)F)c1 | > 10 µM (inactive)
NC(=O)n1c(O)c(C(=O)c2cccs2)c2cc(Cl)ccc21 | > 10 µM (inactive)
COc1cc([C@@H]2c3cc4c(cc3[C@@H](O[C@@H]3O[C@@H]5CO[C@@H](C)O[C@@H]5[C@H](O)[C@@H]3O)[C@H]3COC(=O)[C@H]23)OCO4)cc(OC)c1O | 0.967 µM
CCCCCCCCCCCCCCCC[N+](C)(C)CCN(Cc1ccc(OC)cc1)c1ncccn1 | > 10 µM (inactive)
C=CC(C)(O)CCC=C(C)CCC=C(C)C (configuration not stated) | > 10 µM (inactive)
CC1CCC(C(C)C)C(OC(=O)c2ccccc2O)C1 (configuration not stated) | > 10 µM (inactive)
N[C@@H](Cc1ccc(N(CCCl)CCCl)cc1)C(=O)O | > 10 µM (inactive)
O=C(Nc1ccc(S(=O)(=O)N2CCOCC2)cc1)c1cc(Cl)ccc1NS(=O)(=O)c1ccc(Cl)s1 | > 10 µM (inactive)
CCCCC(CC)COC(=O)CC(C(=O)OCC(CC)CCCC)S(=O)(=O)O (configuration not stated) | > 10 µM (inactive)
CC[C@]12CCCN3CCc4c(n(c5ccccc45)C(=O)C1)[C@@H]32 | > 10 µM (inactive)
COc1cccc2c1C(=O)c1c(O)c3c(c(O)c1C2=O)C[C@@](O)(C(=O)CO)C[C@@H]3O[C@H]1C[C@H](N)[C@H](O)[C@H](C)O1 | 0.114 µM
O=C(Nc1ccc(Cl)cc1)Nc1ccc(Cl)c(Cl)c1 | > 10 µM (inactive)

Compound | IC50
CCCCCCCCOC(=O)c1ccccc1C(=O)OCCCCCCCC | > 10 µM (inactive)
O=C(Nc1ccc([N+](=O)[O-])cc1Cl)c1cc(Cl)ccc1O | 5.81 µM (inactive)
CCCCCN=C(N)N/N=C/c1c[nH]c2ccc(OC)cc12 | 7.17 µM (inactive)
COC(=O)c1nc(Cl)c(Cl)nc1N | 6.8 µM (inactive)
S=C=Nc1ccc(N=C=S)cc1 | > 10 µM (inactive)
CC(=O)Oc1ccc(C2(c3ccc(OC(C)=O)cc3)Oc3ccccc3NC2=O)cc1 | > 10 µM (inactive)
CCCCC[C@@H](O)CC[C@H]1[C@@H]2Cc3cccc(OCC(=O)O)c3C[C@@H]2C[C@@H]1O | > 10 µM (inactive)
CC[C@H](C)C(=O)O[C@H]1C[C@@H](C)C=C2C=C[C@H](C)[C@H](CC[C@@H]3C[C@@H](O)CC(=O)O3)[C@H]21 | > 10 µM (inactive)
CCCCCCCCCCCCCCCCNc1ccc(C(=O)O)cc1 | > 10 µM (inactive)
CCCCCCCCCCC[C@@H](C[C@@H]1OC(=O)[C@H]1CCCCCC)OC(=O)[C@H](CC(C)C)NC=O | > 10 µM (inactive)
O=C(O)CCC(=O)OC[C@@H](NC(=O)C(Cl)Cl)[C@H](O)c1ccc([N+](=O)[O-])cc1 | > 10 µM (inactive)
Oc1c(Cl)cc(Cl)cc1Sc1cc(Cl)cc(Cl)c1O | > 10 µM (inactive)
CCCCCCCCCCCC[N+](C)(C)Cc1ccccc1 | 6.93 µM (inactive)
O=[N+]([O-])c1cccc(S(=O)(=O)NCCNS(=O)(=O)c2cccc([N+](=O)[O-])c2)c1 | > 10 µM (inactive)
CCN(CC)CCNC(=O)c1c(C)[nH]c(/C=C2\C(=O)Nc3ccc(F)cc32)c1C | > 10 µM (inactive)
O=C1NC2CCCCN2C12CCN(CCCN1c3ccccc3CCc3ccc(Cl)cc31)CC2 (configuration not stated) | > 10 µM (inactive)
Oc1c(I)cc(I)c2cccnc12 | > 10 µM (inactive)
CCOc1ccc2nc3cc(N)ccc3c(N)c2c1 | > 10 µM (inactive)
CCOC(=O)c1ccccc1C(=O)OCC | > 10 µM (inactive)
CC[C@@]1(O)C(=O)OCc2c1cc1n(c2=O)Cc2cc3c(CN(C)C)c(O)ccc3nc2-1 | 0.025 µM
O=C(OCCO)c1ccccc1O | > 10 µM (inactive)
COc1ccc2c(c1)c1c3n2CCN(C)C3=NCC1 | > 10 µM (inactive)
COc1cc2nc(N3CCN(C(=O)C4COc5ccccc5O4)CC3)nc(N)c2cc1OC (configuration not stated) | > 10 µM (inactive)

Compound | IC50
COC(=O)C1=C(C)NC(C)=C(C(=O)OCCN2CCN(C(c3ccccc3)c3ccccc3)CC2)C1c1cccc([N+](=O)[O-])c1 (configuration not stated) | > 10 µM (inactive)
Oc1c(Cl)cc(Cl)c2cccnc12 | > 10 µM (inactive)
CC(=O)Oc1ccc(C2(c3ccc(OC(C)=O)cc3)C(=O)Nc3ccccc32)cc1 | > 10 µM (inactive)
CCCCCCOC(=O)c1cccnc1 | > 10 µM (inactive)
O=C1c2ccccc2C(=O)C1C(=O)C(c1ccccc1)c1ccccc1 | > 10 µM (inactive)
Cc1cccc(C)c1NC(=O)CC12CCCN1CCC2 | > 10 µM (inactive)
Cc1c(C)c2c(c(C)c1OC(=O)CCC(=O)O)CC[C@@](C)(CCC[C@H](C)CCC[C@H](C)CCCC(C)C)O2 | > 10 µM (inactive)
C/C(=C(/OCCOc1ccc(Cl)cc1)c1ccc(Cl)cc1Cl)n1ccnc1 | 9.42 µM (inactive)
CCCCCCCCCCCCCCCCCCOP(=O)([O-])OC1CC[N+](C)(C)CC1 | > 10 µM (inactive)
CCCCCCCCCCCCCCCCCCCCCC(=O)Nc1ccn([C@@H]2O[C@H](CO)[C@@H](O)[C@H]2O)c(=O)n1 | > 10 µM (inactive)
C[C@H](O)CN(C)C | > 10 µM (inactive)
Cn1ccc2cc3c(cc21)CCN3C(=O)Nc1cccnc1 | > 10 µM (inactive)
OC[C@H]1O[C@@H](n2cnc3c(=S)nc[nH]c32)[C@H](O)[C@@H]1O | > 10 µM (inactive)
CCC1=C[C@@H]2CN(C1)Cc1c([nH]c3ccccc13)[C@@](C(=O)OC)(c1cc3c(cc1OC)N(C)[C@H]1[C@@](O)(C(=O)OC)[C@H](OC(C)=O)[C@]4(CC)C=CCN5CC[C@]31[C@@H]54)C2 | > 10 µM (inactive)
COc1cc(S(N)(=O)=O)cc(C(=O)O)c1OC | > 10 µM (inactive)
O=C(CCl)c1ccc(Cl)cc1Cl | 6.17 µM (inactive)
[O-][n+]1ccccc1SSc1cccc[n+]1[O-] | 1.79 µM
COc1c(C)c2c(c(O)c1C/C=C(\C)CCC(=O)OCCN1CCOCC1)C(=O)OC2 | > 10 µM (inactive)
CN(C)/N=N/c1nc[nH]c1C(N)=O | > 10 µM (inactive)
CC(C)OC(=O)OCOP(=O)(CO[C@H](C)Cn1cnc2c(N)ncnc21)OCOC(=O)OC(C)C | > 10 µM (inactive)
CC(=O)c1ccc(OCC(=O)N2CCCCC2)cc1 | > 10 µM (inactive)
CC(=O)O[C@H]1C[C@H](O[C@H]2[C@@H](O)C[C@H](O[C@@H]3[C@@H](O)C[C@H](O[C@H]4CC[C@@]5(C)[C@H](CC[C@@H]6[C@H]5C[C@@H](O)[C@]5(C)[C@@H](C7=CC(=O)OC7)CC[C@]65O)C4)O[C@@H]3C)O[C@@H]2C)O[C@H](C)[C@H]1O[C@@H]1O[C@H](CO)[C@@H](O)[C@H](O)[C@@H]1O | 0.279 µM
Clc1ccc(C(Cn2ccnc2)OCc2ccsc2Cl)c(Cl)c1 (configuration not stated) | 9.47 µM (inactive)
